{"source": "patent US12037354B2", "about": "“Cyclic pantetheine derivatives and uses thereof” (VectivBio Comet AG, priority 2018, dated 2024)", "system": "HepG2 cells", "experiment": "Glucose uptake Glo Assay, Example 821", "format": "cell-based", "details": "for activation at 10 µM / activation at 50 µM: Homo sapiens, 20 min, read-out: % increase in Glucose Uptake", "method": "The effect of compounds from the present disclosure on glucose uptake was determined in HepG2 cells (ATCC, HB-8065) using the glucose uptake Glo Assay Kit (Promega, 11343 according to manufacturer instructions. HepG2 cells were cultured in complete DMEM-glucose media (Gibco) supplemented with 10% FBS (37° C. incubator with 5% CO2) and seeded in 96-well plates at 30,000 cells/well. After removing the complete media, 100 μL/well of serum-free, high-glucose DMEM media were added to the wells and incubated overnight (37° C. incubator with 5% CO2). Media was then replaced with 100 μl/well DPBS containing 0.6°/o BSA and starved for 1 hour. Next, DPBS was removed and 45 μl/well of insulin (100 nM) or compounds (10 μM-50 μM) were added to the wells and incubated for 10 minutes (37° C. incubator with 5% CO2). Insulin and compounds were prepared in DPBS with 0.6% BSA with a final DMSO concentration of 0.1%. Next, 5 μl of 2DG (10 mM) in DPBS were added per well and allowed to incubate for 20 minutes followed by addition of 25 μl stop buffer. 37.5 μl of the mixture were then transferred to a new plate and 12.5 μl of Neutralization buffer added to the wells. After, 50 μl of 2DG6P detection Reagent were added and incubated for 0.5-1 hour at room temperature. Luminescence was measured with 0.3-1 second integration on a luminometer.", "note": "Like-named read-outs stand apart in the source and are kept apart here.", "data": [{"smiles": "CC1(C)COP(=O)(O)O[C@H]1C(=O)NCCC(=O)NCCSC(=O)CCC(=O)O", "note": "[Compound 1]", "values": [{"measurement": "activation at 10 µM", "setting": "10 uM (Example 968)", "value": "≥ 30", "unit": "%"}]}, {"smiles": "CC(=O)SCCNC(=O)CCNC(=O)[C@@H]1OP(=O)(O)OCC1(C)C", "note": "[Compound 2]", "values": [{"measurement": "activation at 10 µM", "setting": "10 uM (Example 970)", "value": "≥ 10", "unit": "%"}]}, {"smiles": "CC1(C)COP(=O)(O)O[C@H]1C(=O)NCCC(=O)NCCSC(=O)CC(=O)CCC(=O)O", "note": "[Compound 3]", "values": [{"measurement": "activation at 10 µM", "setting": "10 uM", "value": "≥ 10", "unit": "%"}, {"measurement": "% increase in Glucose Uptake", "setting": "concentration tested 10 uM", "value": "≥10", "unit": "%"}]}, {"smiles": "CC1(C)COP(=O)(O)O[C@H]1C(=O)NCCC(=O)NCCSC(=O)/C=C/C(=O)O", "note": "[Compound 20]", "values": [{"measurement": "activation at 50 µM", "setting": "50 uM", "value": "≥ 30", "unit": "%"}, {"measurement": "% increase in Glucose Uptake", "setting": "concentration tested 50 uM", "value": "≥30", "unit": "%"}]}, {"smiles": "C[C@@H](O)CC(=O)SCCNC(=O)CCNC(=O)[C@@H]1OP(=O)(O)OCC1(C)C", "note": "[Compound 39]", "values": [{"measurement": "activation at 50 µM", "setting": "50 uM", "value": "≥ 10", "unit": "%"}, {"measurement": "% increase in Glucose Uptake", "setting": "concentration tested 50 uM", "value": "≥10", "unit": "%"}]}, {"smiles": "CC(CC(=O)SCCNC(=O)CCNC(=O)[C@@H]1OP(=O)(O)OCC1(C)C)O[C@H](CC(=O)[O-])C[N+](C)(C)C", "note": "(stereo partly shown) [Compound 47]", "values": [{"measurement": "activation at 50 µM", "setting": "50 uM (Example 966)", "value": "≥ 10", "unit": "%"}]}, {"smiles": "COC(=O)CC(SCCNC(=O)CCNC(=O)[C@@H]1OP(=O)(O)OCC1(C)C)C(=O)OCC[N+](C)(C)C", "note": "(stereo partly shown) [Compound 57]", "values": [{"measurement": "activation at 50 µM", "setting": "50 uM (Example 971)", "value": "≥ 20", "unit": "%"}]}, {"smiles": "COC(=O)[C@H](C)NP1(=O)OCC(C)(C)[C@H](C(=O)NCCC(=O)NCCSC(=O)CCC(=O)O)O1", "note": "(stereo partly shown) [Compound 63]", "values": [{"measurement": "activation at 50 µM", "setting": "50 uM (Example 967)", "value": "≥ 30", "unit": "%"}]}, {"smiles": "COP1(=O)OCC(C)(C)[C@H](C(=O)NCCC(=O)NCCSC(=O)CC(=O)/C=C/C(=O)O)O1", "note": "(stereo partly shown) [Compound 117]", "values": [{"measurement": "activation at 10 µM", "setting": "10 uM (Example 970)", "value": "≥ 30", "unit": "%"}]}, {"smiles": "C/C=C/C(=O)SCCNC(=O)CCNC(=O)[C@@H]1OP(=O)(OC)OCC1(C)C", "note": "(stereo partly shown) [Compound 141]", "values": [{"measurement": "activation at 50 µM", "setting": "50 uM (Example 969)", "value": "≥ 30", "unit": "%"}]}, {"smiles": "C/C=C/C(=O)SCCNC(=O)CCNC(=O)[C@@H]1OP(=O)(N[C@@H](C)C(=O)OC)OCC1(C)C", "note": "(stereo partly shown) [Compound 144]", "values": [{"measurement": "activation at 50 µM", "setting": "50 uM (Example 969)", "value": "≥ 30", "unit": "%"}]}, {"smiles": "C/C=C/C(=O)SCCNC(=O)CCNC(=O)[C@@H]1OP(=O)(N[C@@H](C)C(=O)O)OCC1(C)C", "note": "(stereo partly shown) [Compound 145]", "values": [{"measurement": "activation at 10 µM", "setting": "10 uM (Example 970)", "value": "≥ 30", "unit": "%"}]}, {"smiles": "COC(=O)[C@H](C)NP1(=O)OCC(C)(C)[C@H](C(=O)NCCC(=O)NCCSC(=O)CC(C)=O)O1", "note": "(stereo partly shown) [Compound 157]", "values": [{"measurement": "activation at 50 µM", "setting": "50 uM (Example 971)", "value": "≥ 20", "unit": "%"}]}, {"smiles": "CCOP1(=O)OCC(C)(C)[C@H](C(=O)NCCC(=O)NCCSC(=O)CC(=O)CC(=O)CCC(=O)O)O1", "note": "(stereo partly shown) [Compound 183]", "values": [{"measurement": "activation at 10 µM", "setting": "10 uM (Example 970)", "value": "≥ 30", "unit": "%"}]}, {"smiles": "COC(=O)[C@H](C)NP1(=O)OCC(C)(C)[C@H](C(=O)NCCC(=O)NCCSC(=O)CC(=O)CC(=O)CCC(=O)O)O1", "note": "(stereo partly shown) [Compound 185]", "values": [{"measurement": "activation at 50 µM", "setting": "50 uM (Example 970)", "value": "≥ 30", "unit": "%"}]}, {"smiles": "CCOC(=O)CCC(=O)CC(=O)CC(=O)SCCNC(=O)CCNC(=O)[C@@H]1OP(=O)(OC)OCC1(C)C", "note": "(stereo partly shown) [Compound 211]", "values": [{"measurement": "activation at 50 µM", "setting": "50 uM (Example 969)", "value": "≥ 30", "unit": "%"}]}, {"smiles": "CCOC(=O)CCC(=O)CC(=O)CC(=O)SCCNC(=O)CCNC(=O)[C@@H]1OP(=O)(N[C@@H](C)C(=O)OC)OCC1(C)C", "note": "(stereo partly shown) [Compound 213]", "values": [{"measurement": "activation at 50 µM", "setting": "50 uM (Example 970)", "value": "≥ 30", "unit": "%"}]}, {"smiles": "CCOC(=O)CCC(=O)CC(=O)CC(=O)SCCNC(=O)CCNC(=O)[C@@H]1OP(=O)(OCC[N+](C)(C)C)OCC1(C)C", "note": "(stereo partly shown) [Compound 214]", "values": [{"measurement": "activation at 10 µM", "setting": "10 uM (Example 972)", "value": "≥ 20", "unit": "%"}]}, {"smiles": "COC(=O)CC(SCCNC(=O)CCNC(=O)[C@@H]1OP(=O)(N[C@@H](C)C(=O)OC)OCC1(C)C)C(=O)OC", "note": "(stereo partly shown) [Compound 370]", "values": [{"measurement": "activation at 50 µM", "setting": "50 uM (Example 969)", "value": "≥ 30", "unit": "%"}]}, {"smiles": "COC(=O)CC(SCCNC(=O)CCNC(=O)[C@@H]1OP(=O)(OCC[N+](C)(C)C)OCC1(C)C)C(=O)OC", "note": "(stereo partly shown) [Compound 371]", "values": [{"measurement": "activation at 10 µM", "setting": "10 uM (Example 969)", "value": "≥ 30", "unit": "%"}]}, {"smiles": "COC(=O)C(CC(=O)O)SCCNC(=O)CCNC(=O)[C@@H]1OP(=O)(OC)OCC1(C)C", "note": "(stereo partly shown) [Compound 382]", "values": [{"measurement": "activation at 50 µM", "setting": "50 uM (Example 970)", "value": "≥ 30", "unit": "%"}]}, {"smiles": "COC(=O)C(CC(=O)OCC[N+](C)(C)C)SCCNC(=O)CCNC(=O)[C@@H]1OP(=O)(Oc2ccccc2)OCC1(C)C", "note": "(stereo partly shown) [Compound 393]", "values": [{"measurement": "activation at 10 µM", "setting": "10 uM (Example 970)", "value": "≥ 30", "unit": "%"}]}, {"smiles": "COP1(=O)OCC(C)(C)[C@H](C(=O)NCCC(=O)NCCSC(CC(=O)OCC[N+](C)(C)C)C(=O)O)O1", "note": "(stereo partly shown) [Compound 397]", "values": [{"measurement": "activation at 10 µM", "setting": "10 uM (Example 969)", "value": "≥ 20", "unit": "%"}]}, {"smiles": "CCOC(=O)CC(SCCNC(=O)CCNC(=O)[C@@H]1OP(=O)(OC)OCC1(C)C)C(=O)OCC[N+](C)(C)C", "note": "(stereo partly shown) [Compound 410]", "values": [{"measurement": "activation at 50 µM", "setting": "50 uM (Example 969)", "value": "≥ 30", "unit": "%"}]}, {"smiles": "CC1(C)COC(=O)O[C@H]1C(=O)NCCC(=O)NCCSC(=O)CC(=O)CCC(=O)OCC[N+](C)(C)C", "note": "[Compound 460]", "values": [{"measurement": "activation at 50 µM", "setting": "50 uM (Example 969)", "value": "≥ 30", "unit": "%"}]}]}
